Experimental data as given in patent US20240124427A1, “HYDROXYHETEROCYCLOALKANE-CARBAMOYL DERIVATIVES” (Idorsia Pharmaceuticals Ltd, priority 2021, published 2024).
pIC50: −log10 of the molar value.

Target: human Gal-3 (hGal-3) (Homo sapiens (Human), UniProt P17931)
Experiment: Competitive binding assay: biotinylated hGal-3 binding to microplate-adsorbed asialofetuin (ASF)
Settings: Activity on hGal-3; mean values of several measurements; mixture of diastereomers measured where not separated
Procedure: The inhibitory activity of compounds is determined in competitive binding assays. This spectrophotometric assay measures the binding of biotinylated human Gal-3 (hGal-3) or human Gal-1 (hGal-1), respectively, to a microplate-adsorbed glycoprotein, asialofetuin (ASF) (Proc Natl Acad Sci USA. 2013 Mar 26;110(13):5052-7.). Alternatively, and preferably, a human Gal-1 version in which all six cysteines are substituted by serines may be used.
Briefly, compounds are serially diluted in DMSO (working dilutions).
Plates are incubated for 3 hours at 4° C., then washed with cold assay buffer (3×50 uL), incubated for 1 hour with 25 μL/well of a streptavidin-peroxidase solution (diluted in assay buffer to 80 ng/mL) at 4° C., followed by further washing steps with assay buffer (3×50 uL). Finally, 25 μL/well of ABTS substrate is added.
The calculated IC50 values may fluctuate depending on the daily assay performance. Fluctuations of this kind are known to those skilled in the art. IC50 values from several measurements are given as mean values.

Sequence of human Gal-3 (hGal-3) (P17931 whole entry): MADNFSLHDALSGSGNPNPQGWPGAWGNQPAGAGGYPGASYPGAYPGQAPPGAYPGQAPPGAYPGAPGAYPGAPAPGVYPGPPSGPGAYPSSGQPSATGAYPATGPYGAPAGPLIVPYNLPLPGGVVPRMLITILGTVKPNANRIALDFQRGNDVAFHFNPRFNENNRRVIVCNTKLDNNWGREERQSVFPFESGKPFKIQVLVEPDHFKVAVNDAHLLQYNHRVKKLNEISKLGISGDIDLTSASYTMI

| pIC50 | Structure (SMILES) |
| --- | --- |
| 7.46 | CO[C@@H]1[C@@H](n2cc(-c3ccc(C)c(F)c3F)nn2)[C@@H](O)[C@@H](CO)O[C@H]1C(=O)N(c1cc(C)cc(Br)c1)[C@H]1COC[C@@H]1O [Example 21, (2R,3R,4S,5R,6R)-N-(3-bromo-5-methylphenyl)-4-(4-(2,3-difluoro-4-methylphenyl)-1H-1,2,3-triazol-1-yl)-5-hydroxy-6-(hydroxymethyl)-N-((3S,4R)-4-hydroxytetrahydrofuran-3-yl)-3-methoxytetrahydro-2H-pyran-2-carboxamide] |
| 7.30 | CO[C@@H]1[C@@H](n2cc(-c3cc(F)c(Cl)c(F)c3)nn2)[C@@H](O)[C@@H](CO)O[C@H]1C(=O)N(c1cc(Cl)cc(Cl)c1)[C@H]1COC[C@@H]1O [Example 22, (2R,3R,4S,5R,6R)-4-(4-(4-chloro-3,5-difluorophenyl)-1H-1,2,3-triazol-1-yl)-N-(3,5-dichlorophenyl)-5-hydroxy-6-(hydroxymethyl)-N-((3S,4R)-4-hydroxytetrahydrofuran-3-yl)-3-methoxytetrahydro-2H-pyran-2-carboxamide] |
| 7.26 | CO[C@@H]1[C@@H](n2cc(-c3cc(F)c(Cl)c(F)c3)nn2)[C@@H](O)[C@@H](CO)O[C@H]1C(=O)N(c1cc(Br)cc(Br)c1)[C@H]1COC[C@@H]1O [Example 23, (2R,3R,4S,5R,6R)-4-(4-(4-chloro-3,5-difluorophenyl)-1H-1,2,3-triazol-1-yl)-N-(3,5-dibromophenyl)-5-hydroxy-6-(hydroxymethyl)-N-((3S,4R)-4-hydroxytetrahydrofuran-3-yl)-3-methoxytetrahydro-2H-pyran-2-carboxamide] |
| 7.51 | CO[C@@H]1[C@@H](n2cc(-c3cc(F)c(Cl)c(F)c3)nn2)[C@@H](O)[C@@H](CO)O[C@H]1C(=O)N(c1cc(C)cc(Br)c1)[C@H]1COC[C@@H]1O [Example 25, (2R,3R,4S,5R,6R)-N-(3-bromo-5-methylphenyl)-4-(4-(4-chloro-3,5-difluorophenyl)-1H-1,2,3-triazol-1-yl)-5-hydroxy-6-(hydroxymethyl)-N-((3S,4R)-4-hydroxytetrahydrofuran-3-yl)-3-methoxytetrahydro-2H-pyran-2-carboxamide] |
| 6.79 | CO[C@@H]1[C@@H](n2cc(-c3ccc(Cl)c(Cl)c3)nn2)[C@@H](O)[C@@H](CO)O[C@H]1C(=O)N(c1cc(Cl)cc(Cl)c1)[C@H]1COC[C@@H]1O [Example 26, (2R,3R,4S,5R,6R)-N-(3,5-dichlorophenyl)-4-(4-(3,4-dichlorophenyl)-1H-1,2,3-triazol-1-yl)-5-hydroxy-6-(hydroxymethyl)-N-((3S,4R)-4-hydroxytetrahydrofuran-3-yl)-3-methoxytetrahydro-2H-pyran-2-carboxamide] |
| 7.05 | CO[C@@H]1[C@@H](n2cc(-c3ccc(Cl)c(Cl)c3)nn2)[C@@H](O)[C@@H](CO)O[C@H]1C(=O)N(c1cc(Br)cc(Br)c1)[C@H]1COC[C@@H]1O [Example 27, (2R,3R,4S,5R,6R)-N-(3,5-dibromophenyl)-4-(4-(3,4-dichlorophenyl)-1H-1,2,3-triazol-1-yl)-5-hydroxy-6-(hydroxymethyl)-N-((3S,4R)-4-hydroxytetrahydrofuran-3-yl)-3-methoxytetrahydro-2H-pyran-2-carboxamide] |
| 6.94 | CO[C@@H]1[C@@H](n2cc(-c3ccc(Cl)c(Cl)c3)nn2)[C@@H](O)[C@@H](CO)O[C@H]1C(=O)N(c1cc(Br)cc(C#N)c1)[C@H]1COC[C@@H]1O [Example 28, (2R,3R,4S,5R,6R)-N-(3-bromo-5-cyanophenyl)-4-(4-(3,4-dichlorophenyl)-1H-1,2,3-triazol-1-yl)-5-hydroxy-6-(hydroxymethyl)-N-((3S,4R)-4-hydroxytetrahydrofuran-3-yl)-3-methoxytetrahydro-2H-pyran-2-carboxamide] |
| 6.82 | CO[C@@H]1[C@@H](n2cc(-c3ccc(Cl)c(Cl)c3)nn2)[C@@H](O)[C@@H](CO)O[C@H]1C(=O)N(c1cc(C)cc(Br)c1)[C@H]1COC[C@@H]1O [Example 29, (2R,3R,4S,5R,6R)-N-(3-bromo-5-methylphenyl)-4-(4-(3,4-dichlorophenyl)-1H-1,2,3-triazol-1-yl)-5-hydroxy-6-(hydroxymethyl)-N-((3S,4R)-4-hydroxytetrahydrofuran-3-yl)-3-methoxytetrahydro-2H-pyran-2-carboxamide] |
| 6.63 | CO[C@@H]1[C@@H](n2cc(-c3cc(F)c(F)c(F)c3)nn2)[C@@H](O)[C@@H](CO)O[C@H]1C(=O)N(c1cccc(Cl)c1)[C@@H]1COC[C@H]1O [Example 30, (2R,3R,4S,5R,6R)-N-(3-chlorophenyl)-5-hydroxy-6-(hydroxymethyl)-N-((3R,4S)-4-hydroxytetrahydrofuran-3-yl)-3-methoxy-4-(4-(3,4,5-trifluorophenyl)-1H-1,2,3-triazol-1-yl)tetrahydro-2H-pyran-2-carboxamide] |
| 6.99 | CO[C@@H]1[C@@H](n2cc(-c3cc(F)c(F)c(F)c3)nn2)[C@@H](O)[C@@H](CO)O[C@H]1C(=O)N(c1cccc(Br)c1)[C@@H]1COC[C@H]1O [Example 31, (2R,3R,4S,5R,6R)-N-(3-bromophenyl)-5-hydroxy-6-(hydroxymethyl)-N-((3R,4S)-4-hydroxytetrahydrofuran-3-yl)-3-methoxy-4-(4-(3,4,5-trifluorophenyl)-1H-1,2,3-triazol-1-yl)tetrahydro-2H-pyran-2-carboxamide] |
| 6.89 | CO[C@@H]1[C@@H](n2cc(-c3cc(F)c(F)c(F)c3)nn2)[C@@H](O)[C@@H](CO)O[C@H]1C(=O)N(c1cccc(I)c1)[C@@H]1COC[C@H]1O [Example 32, (2R,3R,4S,5R,6R)-5-hydroxy-6-(hydroxymethyl)-N-((3R,4S)-4-hydroxytetrahydrofuran-3-yl)-N-(3-iodophenyl)-3-methoxy-4-(4-(3,4,5-trifluorophenyl)-1H-1,2,3-triazol-1-yl)tetrahydro-2H-pyran-2-carboxamide] |
| 6.98 | CO[C@@H]1[C@@H](n2cc(-c3cc(F)c(F)c(F)c3)nn2)[C@@H](O)[C@@H](CO)O[C@H]1C(=O)N(c1cc(Cl)cc(Cl)c1)[C@@H]1COC[C@H]1O [Example 33, (2R,3R,4S,5R,6R)-N-(3,5-dichlorophenyl)-5-hydroxy-6-(hydroxymethyl)-N-((3R,4S)-4-hydroxytetrahydrofuran-3-yl)-3-methoxy-4-(4-(3,4,5-trifluorophenyl)-1H-1,2,3-triazol-1-yl)tetrahydro-2H-pyran-2-carboxamide] |
| 6.99 | CO[C@@H]1[C@@H](n2cc(-c3cc(F)c(F)c(F)c3)nn2)[C@@H](O)[C@@H](CO)O[C@H]1C(=O)N(c1cc(Cl)cc(C#N)c1)[C@@H]1COC[C@H]1O [Example 34, (2R,3R,4S,5R,6R)-N-(3-chloro-5-cyanophenyl)-5-hydroxy-6-(hydroxymethyl)-N-((3R,4S)-4-hydroxytetrahydrofuran-3-yl)-3-methoxy-4-(4-(3,4,5-trifluorophenyl)-1H-1,2,3-triazol-1-yl)tetrahydro-2H-pyran-2-carboxamide] |
| 7.08 | CO[C@@H]1[C@@H](n2cc(-c3cc(F)c(F)c(F)c3)nn2)[C@@H](O)[C@@H](CO)O[C@H]1C(=O)N(c1cc(Br)cc(Br)c1)[C@@H]1COC[C@H]1O [Example 35, (2R,3R,4S,5R,6R)-N-(3,5-dibromophenyl)-5-hydroxy-6-(hydroxymethyl)-N-((3R,4S)-4-hydroxytetrahydrofuran-3-yl)-3-methoxy-4-(4-(3,4,5-trifluorophenyl)-1H-1,2,3-triazol-1-yl)tetrahydro-2H-pyran-2-carboxamide] |
